Test results as given in patent US11046716B2, “Beta-lactamase inhibitors” (priority 2015, dated 2021).
pIC50: −log10 of the molar value.

Assays:
[1] = test system: K. pneumoniae expressing the class A carbapenemase KPC-2 and the class B carbapenemase VIM-4; experiment: Broth microdilution MIC assay with meropenem, K. pneumoniae KPC-2 and VIM-4; assay type: cell-based; details: Fixed Mero (meropenem) 4 μg/mL; K. p. A-1797 KPC-2 VIM-4
How it was run: (§1)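 Strains grown 3-5 hours in CAMHB are inoculated by the CLSI broth microdilution method onto compound dilutions (16 to 0.125 μg/mL) overlaid with β-lactam at 4 μg/ml final. After 16-20 hours at 37° C, the lowest compound concentration inhibiting growth is taken as the MIC.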

AmpC = target: T1, AmpC (Enterobacter cloacae, UniProt P05364); experiment: β-lactamase enzyme inhibition assay, p99 AmpC (nitrocefin substrate); assay type: biochemical
T1 construct: made in house; host or cells: E. coli BL21(DE3)
How it was run: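 IC50 is the inhibitor level cutting initial substrate hydrolysis rate by 50% relative to no-inhibitor controls, after 15 min enzyme–inhibitor preincubation at 37 °C. enzymes were untagged, E. coli-expressed, chromatographically purified.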

SHV-5 = target: T2, SHV-5 (Klebsiella pneumoniae, UniProt P0A3M1); experiment: β-lactamase enzyme inhibition assay, SHV-5 (cefotaxime substrate); assay type: biochemical
T2 construct: made in house; host or cells: E. coli BL21(DE3)
How it was run: (§2)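 IC50 is the inhibitor level cutting initial substrate hydrolysis rate by 50% relative to no-inhibitor controls, after 15 min enzyme–inhibitor preincubation at 37 °C. KPC-2 read with imipenem at 300 nm, SHV-5 with cefotaxime at 260 nm; enzymes were untagged, E. coli-expressed, chromatographically purified.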

KPC-2 = target: T3, KPC-2 (Klebsiella pneumoniae, UniProt Q9F663); experiment: β-lactamase enzyme inhibition assay, KPC-2 (imipenem substrate); assay type: biochemical; details: Class A; imipenem substrate, 300 nm; read-out: KPC-2
T3 construct: made in house; host or cells: E. coli BL21(DE3)
How it was run: as §2

[2] = test system: K. pneumoniae expressing the Class A carbapenemase KPC-2; experiment: Broth microdilution MIC assay with meropenem, K. pneumoniae KPC-2; assay type: cell-based; details: Fixed Mero (meropenem) 4 μg/mL; K. p. 156319 KPC-3
How it was run: as §1

[3] = test system: E. cloacae expressing the Class C P99; experiment: Broth microdilution MIC assay with ceftazidime, E. cloacae P99; assay type: cell-based; details: Fixed CAZ (ceftazidime) 4 μg/mL; E. cl. 144200 p99 AmpC
How it was run: as §1

[4] = test system: E. coli expressing the Class A Extended Spectrum Beta-Lactamase (ESBL) CTX-M-15; experiment: Broth microdilution MIC assay with ceftazidime, E. coli CTX-M-15; assay type: cell-based; details: Fixed CAZ (ceftazidime) 4 μg/mL; E. coli ESBL4 CTX-M-15
How it was run: as §1

[5] = test system: P. aeruginosa expressing the Class B carbapenemase VIM-2; experiment: Broth microdilution MIC assay with meropenem, P. aeruginosa VIM-2; assay type: cell-based; details: Fixed Mero (meropenem) 4 μg/mL; P. aerug. 2775 VIM-2
How it was run: as §1

OXA-48 = OXA-48 (UniProt Q6XEC0); experiment: β-lactamase enzyme inhibition assay, Class D oxacillinase; assay type: biochemical; details: read-out: OXA-48
[6] = test system: K. pneumoniae producing the Class D carbapenemase OXA-48; experiment: Broth microdilution MIC assay with meropenem, K. pneumoniae OXA-48; assay type: cell-based; details: Fixed Mero (meropenem) 4 μg/mL; K. p. 11978 OXA-48
How it was run: as §1

VIM-2 = target: T4, VIM-2 (Escherichia coli, UniProt Q5U7L7); experiment: β-lactamase enzyme inhibition assay, VIM-2 (nitrocefin substrate); assay type: biochemical; details: Class B; nitrocefin substrate, 486 nm; read-out: VIM-2
T4 construct: made in house; host or cells: E. coli BL21(DE3)
How it was run: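 First, VIM-2 purified by repeated anion exchange at pH 7.5 is mixed with inhibitor and held 15 min at 37 °C. Next, nitrocefin (final 100 μM) is dispensed and absorbance at 486 nm monitored immediately for 10 min. Rates versus uninhibited controls give IC50.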

T2 sequence (P0A3M1 22-286): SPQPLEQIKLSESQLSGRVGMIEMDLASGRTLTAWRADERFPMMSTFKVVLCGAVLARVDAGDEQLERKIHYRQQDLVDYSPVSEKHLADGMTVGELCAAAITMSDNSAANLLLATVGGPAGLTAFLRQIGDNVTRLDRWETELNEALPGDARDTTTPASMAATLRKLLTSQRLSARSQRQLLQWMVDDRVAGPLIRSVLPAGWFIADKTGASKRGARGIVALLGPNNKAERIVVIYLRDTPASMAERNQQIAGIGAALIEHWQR
T1 sequence (P05364 21-381): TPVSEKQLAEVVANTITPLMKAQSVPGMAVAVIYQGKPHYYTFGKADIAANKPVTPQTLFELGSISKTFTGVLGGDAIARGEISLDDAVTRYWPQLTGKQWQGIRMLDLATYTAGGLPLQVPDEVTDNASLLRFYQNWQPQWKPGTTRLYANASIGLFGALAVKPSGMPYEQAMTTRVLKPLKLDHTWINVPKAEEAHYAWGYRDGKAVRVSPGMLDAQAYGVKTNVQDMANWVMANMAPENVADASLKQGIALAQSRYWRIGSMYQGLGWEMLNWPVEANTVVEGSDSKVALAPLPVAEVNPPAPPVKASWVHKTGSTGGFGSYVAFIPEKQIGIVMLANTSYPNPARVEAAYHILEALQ
T3 sequence (Q9F663 25-293, looked up): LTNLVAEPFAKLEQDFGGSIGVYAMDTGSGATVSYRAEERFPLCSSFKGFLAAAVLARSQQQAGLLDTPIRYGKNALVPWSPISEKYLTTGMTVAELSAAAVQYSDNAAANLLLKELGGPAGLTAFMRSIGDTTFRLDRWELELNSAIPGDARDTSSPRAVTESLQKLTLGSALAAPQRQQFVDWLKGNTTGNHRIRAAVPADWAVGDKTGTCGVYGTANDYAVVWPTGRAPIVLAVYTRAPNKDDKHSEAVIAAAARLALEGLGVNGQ

Structure (SMILES)	MIC (μg/mL) of Exemplary Compounds in presence of fixed β-lactams: K. p. A-1797 KPC-2 VIM-4 [1]	pIC50 (AmpC)	pIC50 (SHV-5)	pIC50 (KPC-2)	MIC (μg/mL) of Exemplary Compounds in presence of fixed β-lactams: K. p. 156319 KPC-3 [2]	MIC (μg/mL) of Exemplary Compounds in presence of fixed β-lactams: E. cl. 144200 p99 AmpC [3]	MIC (μg/mL) of Exemplary Compounds in presence of fixed β-lactams: E. coli ESBL4 CTX-M-15 [4]	MIC (μg/mL) of Exemplary Compounds in presence of fixed β-lactams: P. aerug. 2775 VIM-2 [5]	pIC50 (OXA-48)	MIC (μg/mL) of Exemplary Compounds in presence of fixed β-lactams: K. p. 11978 OXA-48 [6]	pIC50 (VIM-2)
O=C(Cc1nnnn1CC1CCNCC1)N[C@H]1Cc2cccc(C(=O)O)c2OB1O [Example 98, (R)-2-hydroxy-3-(2-(1-(piperidin-4-ylmethyl)-1H-tetrazol-5-yl)acetamido)-3,4-dihydro-2H-benzo[e][1,2]oxaborinine-8-carboxylic acid]	B (B represents an MIC between 1 and 16 μg/mL inclusive)	> 7.00	> 7.00	> 7.00	C (C represents an MIC of <1 μg/mL)	C (C represents an MIC of <1 μg/mL)	C (C represents an MIC of <1 μg/mL)	C (C represents an MIC of <1 μg/mL)	6.00 to 7.00	B (B represents an MIC between 1 and 16 μg/mL inclusive)	> 7.00
O=C(Cc1nnn(CC2CCNCC2)n1)N[C@H]1Cc2cccc(C(=O)O)c2OB1O [Example 99, (R)-2-hydroxy-3-(2-(2-(piperidin-4-ylmethyl)-2H-tetrazol-5-yl)acetamido)-3,4-dihydro-2H-benzo[e][1,2]oxaborinine-8-carboxylic acid]	B (B represents an MIC between 1 and 16 μg/mL inclusive)	> 7.00	> 7.00	> 7.00	C (C represents an MIC of <1 μg/mL)	C (C represents an MIC of <1 μg/mL)	C (C represents an MIC of <1 μg/mL)	C (C represents an MIC of <1 μg/mL)	6.00 to 7.00	B (B represents an MIC between 1 and 16 μg/mL inclusive)	6.00 to 7.00
O=C(Cc1nnn(C2CNC2)n1)N[C@H]1Cc2cccc(C(=O)O)c2OB1O [Example 100, (R)-3-(2-(2-(azetidin-3-yl)-2H-tetrazol-5-yl)acetamido)-2-hydroxy-3,4-dihydro-2H-benzo[e][1,2]oxaborinine-8-carboxylic acid]	B (B represents an MIC between 1 and 16 μg/mL inclusive)	> 7.00	> 7.00	6.00 to 7.00	C (C represents an MIC of <1 μg/mL)	C (C represents an MIC of <1 μg/mL)	C (C represents an MIC of <1 μg/mL)	C (C represents an MIC of <1 μg/mL)	> 7.00	C (C represents an MIC of <1 μg/mL)	> 7.00
O=C(Cc1nnnn1CCF)N[C@H]1Cc2cccc(C(=O)O)c2OB1O [Example 101, (R)-3-(2-(1-(2-fluoroethyl)-1H-tetrazol-5-yl)acetamido)-2-hydroxy-3,4-dihydro-2H-benzo[e][1,2]oxaborinine-8-carboxylic acid]	B (B represents an MIC between 1 and 16 μg/mL inclusive)	> 7.00	> 7.00	> 7.00	B (B represents an MIC between 1 and 16 μg/mL inclusive)	C (C represents an MIC of <1 μg/mL)	C (C represents an MIC of <1 μg/mL)	C (C represents an MIC of <1 μg/mL)	> 7.00	C (C represents an MIC of <1 μg/mL)	6.00 to 7.00
NCCc1nnnn1CC(=O)N[C@H]1Cc2cccc(C(=O)O)c2OB1O [Example 102, (R)-3-(2-(5-(2-aminoethyl)-1H-tetrazol-1-yl)acetamido)-2-hydroxy-3,4-dihydro-2H-benzo[e][1,2]oxaborinine-8-carboxylic acid]	B (B represents an MIC between 1 and 16 μg/mL inclusive)	> 7.00	6.00 to 7.00	> 7.00	B (B represents an MIC between 1 and 16 μg/mL inclusive)	C (C represents an MIC of <1 μg/mL)	C (C represents an MIC of <1 μg/mL)	C (C represents an MIC of <1 μg/mL)	6.00 to 7.00	B (B represents an MIC between 1 and 16 μg/mL inclusive)	> 7.00
NCCc1nnn(CC(=O)N[C@H]2Cc3cccc(C(=O)O)c3OB2O)n1 [Example 103, (R)-3-(2-(5-(2-aminoethyl)-2H-tetrazol-2-yl)acetamido)-2-hydroxy-3,4-dihydro-2H-benzo[e][1,2]oxaborinine-8-carboxylic acid]	B (B represents an MIC between 1 and 16 μg/mL inclusive)	> 7.00	6.00 to 7.00	> 7.00	C (C represents an MIC of <1 μg/mL)	C (C represents an MIC of <1 μg/mL)	C (C represents an MIC of <1 μg/mL)	C (C represents an MIC of <1 μg/mL)	6.00 to 7.00	B (B represents an MIC between 1 and 16 μg/mL inclusive)	6.00 to 7.00
